Our source for the IC50 values is patent US7504397B2, “mTOR inhibitor compounds” (Kudos Pharmaceuticals Ltd., priority 2005, dated 2009).

This experiment has as its target mTOR protein (Homo sapiens, UniProt P42345). Kind of experiment: mTOR enzyme activity assay (PHAS-1 substrate). In kind it is biochemical. As to conditions: recombinant PHAS-1 as substrate.

Bounds are passed on as bounds.

From the text: For mTOR enzyme activity assays, mTOR protein was isolated from HeLa cell cytoplasmic extract by immunoprecipitation, and activity determined essentially as described previously using recombinant PHAS-1 as a substrate (ref. 21).

As for `COc1cc(C=NNc2cc(N3CCOCC3)nc(N3CCCCC3)n2)cc(OC)c1O` [Compound 12b], the IC50 was below 1500 nM.

Regarding `COc1cc(-c2csc(-c3ccnc(N4CCOCC4)n3)n2)cc(OC)c1O` [Compound 27, 2,6-Dimethoxy-4-[2-(2-morpholin-4-yl-pyrimidin-4-yl)-thiazol-4-yl]-phenol], the IC50 was below 1500 nM.

`COc1cc2ncnc(NN=Cc3ccc(O)c(O)c3)c2cc1OC` [Compound 41a]: the IC50 is below 1500 nM.

Take `O=C(NNc1nc(N2CCOCC2)nc(N2CCOCC2)n1)c1cc(O)c(O)c(O)c1` [Compound 47a]: the IC50 is below 1500 nM.

On to `COc1cc(-c2cncn2-c2ccnc(N3CCOCC3)n2)cc(OC)c1O` [Compound 50, 2,6-Dimethoxy-4-[3-(2-morpholin-4-yl-pyrimidin-4-yl)-3H-imidazol-4-yl]-phenol], for which the half-maximal inhibitory concentration (IC50) is below 1500 nM.

Consider `Oc1c(F)cc(-c2csc(-c3ccnc(N4CCOCC4)n3)n2)cc1F` [Compound 59a], for which the IC50 is below 1500 nM.

As for `COc1cc(-c2csc(-c3ccnc(N4CCOC[C@@H]4C)n3)n2)cc(OC)c1O` [Compound 59i], the 50% inhibitory concentration (IC50) was below 1500 nM.

Regarding `COc1cc(-c2csc(-c3ccnc(N4CCCC(OC)C4)n3)n2)cc(OC)c1O` (centres unmarked) [Compound 59j], the IC50 was below 1500 nM.

As to `COc1cc(-c2csc(-c3ccnc(N4CCOCC4)n3)c2)cc(OC)c1O` [Compound 69a], the IC50 was below 1500 nM.

Take `CN(N=Cc1cc(O)c(O)c(O)c1)c1nc(N2CCOCC2)c2cccnc2n1` [Compound 75a]: the IC50 was below 1500 nM.

As to `COc1cc(C=NN(C)c2nc(N3CCOCC3)c3cccnc3n2)cc(OC)c1O` [Compound 75b], the half-maximal inhibitory concentration (IC50) was below 1500 nM.

Broadly, the IC50 is the concentration that inhibits the measured activity by half.
